From publication PMC4399838, “Antipsychotic-Like Effect of the Muscarinic Acetylcholine Receptor Agonist BuTAC in Non-Human Primates” (PLoS ONE, 2015)

Legend:
M3AChR = M3AChR (Homo sapiens, UniProt P20309); experiment: Competitive radioligand binding; conditions: competitive binding; negative log-transformed; read-out: pKi (converted)
[1] = biological target: T1, human M2 muscarinic receptor (Homo sapiens, UniProt P08172); experiment: GTP-γ-[35S] binding, antibody capture SPA (agonist and antagonist mode); type: biochemical
T1 construct: purchased PerkinElmer Life and Analytical Sciences, Boston, MA
T1 sequence (P08172 1-466): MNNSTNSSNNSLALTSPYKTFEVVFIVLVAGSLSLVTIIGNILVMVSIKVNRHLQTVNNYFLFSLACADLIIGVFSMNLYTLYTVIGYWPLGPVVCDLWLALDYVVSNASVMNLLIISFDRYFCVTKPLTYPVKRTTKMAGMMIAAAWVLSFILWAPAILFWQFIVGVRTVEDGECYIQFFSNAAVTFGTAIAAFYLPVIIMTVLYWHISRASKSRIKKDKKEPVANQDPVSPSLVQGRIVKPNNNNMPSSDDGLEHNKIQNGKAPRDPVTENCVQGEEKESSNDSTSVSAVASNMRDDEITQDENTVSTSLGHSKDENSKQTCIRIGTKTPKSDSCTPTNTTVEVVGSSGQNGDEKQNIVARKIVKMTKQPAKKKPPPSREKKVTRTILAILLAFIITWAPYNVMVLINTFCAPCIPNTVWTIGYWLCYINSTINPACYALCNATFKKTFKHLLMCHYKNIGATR
Method: (§1) The antibody capture scintillation proximity technique previously described by DeLapp et al was used in a 96-well plate to determine GTP-γ-[35S] binding. One hundred μl (20–40 fmol/well) of membrane preparation from CHO cells that stably express the human M1-M5 muscarinic receptors (PerkinElmer Life and Analytical Sciences, Boston, MA) were incubated with varying concentration of test compound (final concentrations from 50pM to 1μM) for 30 min. One μM final concentration of GDP was added to M2 and M4 receptor membranes before incubation. […] (500 pM final concentration; Perkin Elmer Life and Analytical Sciences) was added to each well followed by 30 min of incubation. Then the labelled membranes were solubilized with 0.27% Nonidet P40 for 30 min where after they were incubated with 20 μl (final dilution of 1:400) of the appropriate rabbit polyclonal Gα antibody (Covance, Princeton, NJ) for 60 min. An anti-Gαq/11 antibody was used for the M1-, M3-, and M5 membranes, whereas an anti-Gαi-3 antibody was used for the M2- and M4 membranes (Eli Lilly and Company, Indianapolis, IN). After 60 min of incubation, 50 μl (1.25 mg/well) anti-rabbit scintillation proximity assay (SPA) beads (GE Healthcare, Piscataway, NJ) were added per well where after the plates were incubated for another 3 h. By use of a Wallac MicroBeta TriLux scintillation counter (PerkinElmer), the plates were centrifuged for 10 min at 700 × g and counted for 1 min per well. The incubations took place at room temperature in GTP-binding assay buffer (20 mM Hepes, 100 mm NaCl, 5 mM MgC12, pH 7.4). The data were analyzed by use of nonlinear regression for a sigmoidal concentration response curve (GraphPad Prism v. 4.0). Data were normalized to a full agonist response (100 μM oxotremorine-M). […] The antagonist percent inhibition data were normalized to data generated with an EC90 concentration of acetylcholine. The mean relative EC50, IC50, and %Emax, and pKi values were calculated as a mean of at least three independent experiments±SEM. In order to obtain relevant comparisons between subtypes, the experimental system is routinely calibrated with reference agonists (oxotremorine-M, pilocarpine, MCN-A343) to measure full and partial agonism as well as to ensure that the system is not under- or over-reporting functional efficacies. The radioligand binding assays have earlier been described.

[2] = biological target: T2, human M3 muscarinic receptor (Homo sapiens, UniProt P20309); experiment: as above; type: biochemical
T2 construct: purchased PerkinElmer Life and Analytical Sciences, Boston, MA
T2 sequence (P20309 whole entry): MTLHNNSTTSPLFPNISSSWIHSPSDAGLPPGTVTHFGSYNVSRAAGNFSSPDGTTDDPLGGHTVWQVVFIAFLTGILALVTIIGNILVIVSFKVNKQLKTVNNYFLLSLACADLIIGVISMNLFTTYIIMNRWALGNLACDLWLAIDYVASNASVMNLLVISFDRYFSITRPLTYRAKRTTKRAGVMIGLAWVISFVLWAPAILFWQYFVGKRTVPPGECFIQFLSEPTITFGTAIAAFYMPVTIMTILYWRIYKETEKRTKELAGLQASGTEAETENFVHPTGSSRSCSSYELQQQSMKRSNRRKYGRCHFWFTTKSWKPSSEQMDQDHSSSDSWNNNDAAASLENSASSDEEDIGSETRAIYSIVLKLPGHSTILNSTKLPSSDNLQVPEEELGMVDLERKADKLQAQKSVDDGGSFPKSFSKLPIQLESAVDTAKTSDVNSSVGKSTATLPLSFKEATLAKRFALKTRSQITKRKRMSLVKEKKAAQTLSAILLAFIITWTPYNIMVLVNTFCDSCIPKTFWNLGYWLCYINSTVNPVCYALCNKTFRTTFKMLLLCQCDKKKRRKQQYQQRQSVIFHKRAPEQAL
Method: as §1

[3] = biological target: T3, human M4 muscarinic receptor (Homo sapiens, UniProt P08173); experiment: as above; type: biochemical
T3 construct: purchased PerkinElmer Life and Analytical Sciences, Boston, MA
T3 sequence (P08173 1-479): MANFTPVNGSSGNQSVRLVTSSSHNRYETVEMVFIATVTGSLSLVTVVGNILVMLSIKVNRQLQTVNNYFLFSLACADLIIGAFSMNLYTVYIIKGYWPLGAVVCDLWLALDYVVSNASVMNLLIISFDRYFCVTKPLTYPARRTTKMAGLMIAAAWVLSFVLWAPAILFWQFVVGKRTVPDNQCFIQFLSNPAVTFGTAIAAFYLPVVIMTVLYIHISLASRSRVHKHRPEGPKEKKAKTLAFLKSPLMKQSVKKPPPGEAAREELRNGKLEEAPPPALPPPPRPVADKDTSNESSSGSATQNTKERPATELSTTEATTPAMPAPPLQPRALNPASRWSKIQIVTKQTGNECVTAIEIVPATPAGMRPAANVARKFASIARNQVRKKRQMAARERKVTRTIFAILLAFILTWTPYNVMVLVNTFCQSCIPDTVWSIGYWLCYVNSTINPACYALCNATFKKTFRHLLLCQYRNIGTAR
Method: as §1, with “Then the labelled membranes were solubilized with 0.27% Nonidet P40 for 30 min where after they were incubated with 20 μl (final dilution of 1:400) of the appropriate rabbit polyclonal Gα antibody (Covance, Princeton, NJ) for 60 min.” left out, “After 60 min of incubation, 50 μl (1.25 mg/well) anti-rabbit scintillation proximity assay (SPA) beads (GE Healthcare, Piscataway, NJ) were added per well where after the plates were incubated for another 3 h.” left out

[4] = biological target: T4, human M5 muscarinic receptor (Homo sapiens, UniProt P08912); experiment: as above; type: biochemical
T4 construct: purchased PerkinElmer Life and Analytical Sciences, Boston, MA
T4 sequence (P08912 1-532): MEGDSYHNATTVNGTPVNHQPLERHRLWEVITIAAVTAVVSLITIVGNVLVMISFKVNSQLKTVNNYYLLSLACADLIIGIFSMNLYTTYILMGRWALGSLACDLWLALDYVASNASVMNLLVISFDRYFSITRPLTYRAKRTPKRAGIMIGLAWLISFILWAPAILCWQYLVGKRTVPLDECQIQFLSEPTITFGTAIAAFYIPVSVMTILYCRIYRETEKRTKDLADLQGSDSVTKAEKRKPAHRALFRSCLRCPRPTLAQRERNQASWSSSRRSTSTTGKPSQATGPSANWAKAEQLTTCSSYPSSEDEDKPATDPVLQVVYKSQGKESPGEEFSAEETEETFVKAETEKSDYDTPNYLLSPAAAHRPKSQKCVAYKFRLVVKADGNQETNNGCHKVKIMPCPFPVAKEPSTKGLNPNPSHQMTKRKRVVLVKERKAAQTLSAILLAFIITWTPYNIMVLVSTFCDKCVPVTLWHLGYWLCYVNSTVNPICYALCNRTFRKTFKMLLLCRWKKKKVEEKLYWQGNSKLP
Method: as §1, with “Then the labelled membranes were solubilized with 0.27% Nonidet P40 for 30 min where after they were incubated with 20 μl (final dilution of 1:400) of the appropriate rabbit polyclonal Gα antibody (Covance, Princeton, NJ) for 60 min.” left out, “After 60 min of incubation, 50 μl (1.25 mg/well) anti-rabbit scintillation proximity assay (SPA) beads (GE Healthcare, Piscataway, NJ) were added per well where after the plates were incubated for another 3 h.” left out

schizophrenic patients = system: schizophrenic patients; parameters: method as in PMID 13425257; conditions: subcutaneous injection, twenty-three schizophrenic patients; cited from earlier work
[5] = system: antipsychotic-naïve Cebus Apella monkeys; experiment: Side effects of BuTAC alone or with d-amphetamine; type: in vivo; conditions: d-amphetamine 0.5 mg/kg alone
Method: (§2) Seven male Cebus Apella monkeys were used for evaluation the anti-amphetamine effect and the side effect profile of BuTAC. These monkeys were never before administered antipsychotics and had never experienced EPS, but had previously been administered amphetamine. For further evaluation of the EPS potential of BuTAC, the compound was tested in four male and female monkeys, all sensitized to drug-induced EPS by earlier chronic treatment with classical antipsychotic drugs.
(§3) All monkeys received all treatments with at least one week between tests and thus served as their own control. To avoid extended physical contact with the experimenter, the cages were reduced in sized by moving the back wall of the cage closer to the front wall to lightly immobilize the monkey while injecting the test substance in the thigh. This was done at 9 am at test days. After the appropriate pre-treatment time, the monkeys were videotaped in their cages at predefined time points after drug injection.
(§4) The rated primate behaviours and symptoms were the following: unrest, stereotypy, arousal, sedation and bradykinesia (Table 1). All monkeys were videotaped in 90-sec. sessions at specific time points throughout the test sessions. The videotapes were rated for amphetamine-induced behaviours and EPS by two experienced raters blinded to the treatment of the animal by means of a rating scale adapted from Peacock et al. and previously described by Andersen et al. (Table 1). In case of any discrepancy between the two ratings, the recording in question was re-evaluated and a rating agreed upon. The monkeys were videotaped at t = 30, 60, 90, 135, 150, 165, 180, 240, 300 min after BuTAC (or vehicle) administration. For the combination studies, d-amphetamine was injected at t = 120 min. Oral dyskinesia was measured in counts per 90 sec. The severity of other behaviours and symptoms were rated on a scale ranging from 0 (not present) to 6 (extreme presence).
(§5) For evaluation of anti-amphetamine effects, BuTAC was tested in doses of 0.001, 0.003, 0.01 mg/kg in combination with 0.5 mg/kg of d-amphetamine. BuTAC or peanut oil vehicle was injected s.c. at approximately 9 a.m. Pre-treatment time before s.c. injection of amphetamine was 120 min. For evaluation of side effects, BuTAC was tested alone at doses of 0.001, 0.003 and 0.01 mg/kg in antipsychotic-naïve monkeys and at doses of 0.003 and 0.01 mg/kg in monkeys sensitized to extrapyramidal side effects (EPS) by earlier long-term treatment with first generation antipsychotics. […] None of the animals were sacrificed.
(§6) Data from the experiments where BuTAC was administered alone collected at t = 60, 180, 300 min are presented. For the d-amphetamine / BuTAC study, data collected at t(amp) = 60, 120 and 180 min (t = 180, 240, 300 min) are reported. Data were analyzed for overall treatment effects at each time point by means of the non-parametric Friedman’s test for repeated measures. The Student Newman-Keuls comparison procedure was used to analyze for specific dose effects. For all tests, the accepted level of significance was p<0.05.

[6] = system: antipsychotic-naïve Cebus Apella monkeys; experiment: d-Amphetamine-induced behaviour (unrest, stereotypies, arousal), video rating; type: in vivo
Method: as §2, §3, §4, §5, §6

monkeys [7] = experiment: BuTAC-induced emesis and its inhibition by domperidone; type: in vivo, Cebus Apella
Method: S1 Table. Emesis BuTAC / Domperidone
BuTAC 0.01 mg/kg / 1 in 7
Domperidone was purchased from Tocris Bioscience (Bristol, United Kingdom) and dissolved
in 0.9% saline. The compound was administered subcutaneously where after the animals

monkeys [8] = system: monkeys; parameters: method as in PMID 10435384; conditions: cited from earlier work
[9] = antagonist mode, maximal inhibition of EC90 agonist response
[10] = percentage of maximum 100 μM oxotremorine-M signal
[11] = percentage of maximum 100 μM oxotremorine-M signal, read-out: % Emax

M3AChR, sequence (P20309 whole entry): as the sequence (P20309 whole entry) above

## CCCCCCOc1nsnc1C1=CCCN(C)C1 [Xanomeline, xanomeline]
M3AChR
  Ki: 27.5 nM
[1]; [9]
  % Inhibition: 19.4 ± 0.77%
[1]; [10]
  Emax: 55.2 ± 5.12%
[2]; agonist mode, mean ± SEM of negative log-transformed values, read-out: Rel pEC50 (converted)
  EC50: 17.8 nM
[2]; antagonist mode against EC90 of agonist, negative log-transformed, read-out: Rel pIC50 (converted)
  IC50: 832 nM
[2]; [9]
  % Inhibition: 87.6 ± 6.79%
[2]; [10]
  Emax: 13.6 ± 0.56%
[3]; [9]
  % Inhibition: 51.4 ± 2.61%
[3]; [11]
  Emax: 41.8 ± 1.99%
[4]; [9]
  % Inhibition: 81.8 ± 18.5%
[4]; [11]
  Emax: 28.7 ± 0.7%

## COC(=O)C1=CCCN(C)C1 [arecoline]
Schizophrenic patients
  Patients with clinical improvement (“lucid intervals”): more than 80%

## C[C@H](N)Cc1ccccc1.C[C@H](N)Cc1ccccc1.O=S(=O)(O)O [d-amphetamine, d-Amphetamine sulphate, reference compound]
[5]
  Emetic events (vomiting) (monkeys affected): 0
  Salivation (monkeys affected): 0
  Sedation 2 ≤ X ≤ 5 (monkeys affected): 0
[6]; amphetamine 0.5 mg/kg alone, all three test times
  Stereotypies: significantly induced stereotypies
[6]; d-amphetamine 0.5 mg/kg alone, all test times
  Arousal: induced arousal
[6]; d-amphetamine 0.5 mg/kg alone, all time points, relative to vehicle
  Unrest: significantly increased unrest

## O=c1[nH]c2ccccc2n1CCCN1CCC(n2c(=O)[nH]c3cc(Cl)ccc32)CC1 [domperidone]
Monkeys [7]; BuTAC 0.01 mg/kg / domperidone 0.05 mg/kg s.c.
  Emetic events (vomiting), monkeys with emesis: 3/7
Monkeys [7]; BuTAC 0.01 mg/kg / domperidone 0.10 mg/kg s.c.
  Emetic events (vomiting), monkeys with emesis: 1/7
Monkeys [7]; domperidone 0.05 and 0.1 mg/kg
  Effect on BuTAC (0.01 mg/kg)-induced emesis: dose dependently inhibited

## O=C(CCCN1CCC(O)(c2ccc(Cl)cc2)CC1)c1ccc(F)cc1 [haloperidol]
Monkeys [8]
  Minimal effective dose to inhibit amphetamine-induced behaviour: 0.015 mg/kg
